SMILES strings stand for the structures. pEC50: −log10 of the molar value.

The pEC50 is the EC50 on a negative log10 scale, so that one unit is a factor of ten. A low value points to a large EC50.

The subject of this assay is M17_3TAU(P301L) cells. The experiment in a line: TAU-induced cytotoxicity (LDH) in the neuroblastoma tauopathy model. The class given is cell-based. Conditions: Homo sapiens, 168 h, inhibition of TAU-induced toxicity, 7 days retinoic acid differentiation, LDH readout. The text has this: A TAU expression plasmid was constructed by sub-cloning the cDNA encoding for human TAU-P301L protein, wherein proline at position 301 is substituted by a leucine residue, into mammalian expression vector pcDNA3.1 resulting in the plasmid pcDNA3.1-TAUP301L. Plasmids pcDNA3.1 and pcDNA3.1-TAU P301L were transfected into human neuroblastoma cells (BE-M17; ATCC No. CRL-2267™) using lipofectamine reagent and subsequently, independent clonal cell lines with the plasmids stably integrated into the genome were selected by antibiotic resistance selection (Geneticin (G418)), resulting in cell lines M17.pcDNA3 and M17_3TAUP301L. Expression of the TAUP301 L gene in the M17_3TAUP301 L cells was confirmed by Western blot analysis.
Differentiation of the cells with RA leads to phosphorylation and subsequent aggregation of TAU, inducing a tauopathy in these cells. Cytotoxicity of cells was measured by quantification of lactate dehydrogenase (LDH) levels. In dead cells LDH is leaked out of the cells into the medium due to a loss of plasma-membrane integrity.
Briefly, 3 days preceding the experiment pre-cultures of M17.pcDNA3 and M17_3TAU(P301L) cells were prepared, starting from a stock culture, at a density of 50.000-100.000 cells/cm2 in detection medium (Optimem Reduced Serum without phenol red (Gibco, Cat. 31985-047) supplemented with 1% fetal calf serum (FCS), 1 mM sodium pyruvate, 1×non-essential amino acids (NEAA), 500 μg/ml G418 and 0.5×antibiotic/antimycotic (ABAM)). At the day of the experiment these precultures were diluted to ˜[…] in detection medium without FCS and 60 μL of this suspension is dispensed per well into a 96-well microtiter plate. After 3 hours of incubation at 37° C./5% C02 an equal volume of detection medium containing 2.5 μM RA was added and subsequently incubated for 7 days at 37° C./5% CO2. After 7 days, LDH activity was determined using the Promega Cytotox 96 Non-Radioactive cytotoxicity assay (Cat. G1780), according the manufacturer's instructions. Cytotoxicity is measured as the ratio of LDH increase in the supernatant divided by the LDH increase in the total cell suspension (sum of the LDH measured in cells and supernatant). Toxicity was determined after 7 days of differentiation with retinoic acid in M17_3TAU(P301 L) cells compared to M17.pcDNA3 cells.
The M17_3TAU(P301L) cell line makes it possible to assess the ability of novel compounds to inhibit TAU-induced cytotoxicity. […] Compounds were tested for their ability to hamper TAU-induced toxicity at different concentrations, ranging from low non-effective concentrations to high potent concentrations. Afterwards, the dose-dependent inhibition curve was used to calculate their EC50 (Table 3B).
Turning to `O=C(NC1CCC(F)(F)CC1)N1CC2(CN(Cc3ccc(F)cn3)C2)C1` [Cpd B205], the pEC50 is 6.58. The value for `Cc1nc(CN2CC3(C2)CN(C(=O)COc2ccc(F)cc2)C3)cs1` [Cpd B103] was 5.70; that for `O=C(Cc1ccc(Cl)cc1)N1CC2(CN(Cc3ccc(C(F)(F)F)o3)C2)C1` [Cpd B040, 2-(4-Chloro-phenyl)-1-[6-(5-trifluoromethyl-furan-2-ylmethyl)-2,6-diaza-spiro[3.3]hept-2-yl]-ethanone] was 7.39.

For the compound `COc1cccc(CN2CC3(C2)CN(S(=O)(=O)c2ccc(OC(F)(F)F)cc2)C3)c1` [Cpd B219], the pEC50 was 8.08.

Compound `Clc1ccc(Cc2nsc(NC3CC4(CC(NCCc5cccc(Cl)c5)C4)C3)n2)cc1` (stereo not drawn) [Cpd B332, N-(3-(4-chlorobenzyl)-1,2,4-thiadiazol-5-yl)-N′-(3-chlorophenethyl) spiro[3.3]heptane-2,6-diamine] gave a pEC50 of 8.70. The value for `Cc1nn(C)c(CN2CC3(C2)CN(C(=O)CC2CCC(F)(F)CC2)C3)c1Cl` [Cpd B122] was 5.43; that for `Cc1cccnc1CN1CC2(C1)CN(C(=O)c1cc3ccccc3s1)C2` [Cpd B427] was 6.07. The same measure for `COc1cccc(CN2CC3(C2)CN(C(=O)NCc2cccc(C(F)(F)F)c2)C3)c1` [Cpd B173]: 7.52. The value for `O=C(OC1CCC(F)(F)CC1)N1CC2(CN(Cc3ccc(F)cc3)C2)C1` [Cpd B133] was 8.54; that for `COc1ccc(CNC(=O)N2CC3(CN(Cc4ncccc4C)C3)C2)cc1` [Cpd B180] was over 9.72. As for `COc1cccc(CN2CC3(C2)CN(S(=O)(=O)c2ccc(C(F)(F)F)cc2)C3)c1` [Cpd B220], the pEC50 was 7.47. Compound `COc1ccccc1CCCN1CC2(C1)CN(C(=O)Cc1ccc(Cl)cc1)C2` [Cpd B058, 2-(4-chlorophenyl)-1-(6-(3-(2-methoxyphenyl)propyl)-2,6-diazaspiro[3.3]heptan-2-yl)ethanone] showed a pEC50 of 8.76. The value for `COc1cccc(CN2CC3(C2)CN(C(=O)NCc2ccc(F)cc2)C3)c1` [Cpd B181] was 8.30; that for `Clc1ccc(CNC2CC3(C2)CC(Nc2nc(Cc4ccc(Cl)cc4)ns2)C3)cc1` (stereo not drawn) [Cpd B303, N-(4-chlorobenzyl)-N′-(3-(4-chlorobenzyl)-1,2,4-thiadiazol-5-yl) spiro[3.3]heptane-2,6-diamine] was 7.93; that for `Cc1cccnc1CN1CC2(C1)CN(C(=O)NC1CCC(F)(F)CC1)C2` [Cpd B171] was 7.11.

`Cc1cccnc1CN1CC2(C1)CN(C(=O)NCc1ccc(F)cc1)C2` [Cpd B443] showed a pEC50 of 6.77.

In turn, `COC(=O)c1ccc(CN2CC3(C2)CN(C(=O)Cc2ccc(Cl)cc2)C3)cc1` [Cpd B035, methyl 4-((6-(2-(4-chlorophenyl)acetyl)-2,6-diazaspiro[3.3]heptan-2-yl)methyl)benzoate] gave a pEC50 of 8.22. The same measure for `Clc1ccc(Cc2nsc(NC3CC4(CC(NCCc5ccccc5Cl)C4)C3)n2)cc1` (stereo not drawn) [Cpd B334, N-(3-(4-chlorobenzyl)-1,2,4-thiadiazol-5-yl)-N′-(2-chlorophenethyl) spiro[3.3]heptane-2,6-diamine]: 8.70.

Consider `O=C(Cc1ccc(F)cc1)N1CC2(CN(Cc3ccccc3Cl)C2)C1` [Cpd B018, 1-[6-(2-Chloro-benzyl)-2,6-diaza-spiro[3.3]hept-2-yl]-2-(4-fluoro-phenyl)-ethanone], for which the pEC50 is 9.01. The value for `O=C(OC1CCC(F)(F)CC1)N1CC2(CN(Cc3ccccc3C(F)(F)F)C2)C1` [Cpd B147] was 8.49; that for `Cc1nc(CN2CC3(C2)CN(C(=O)NC2CCC(F)(F)CC2)C3)cs1` [Cpd B450] was 6.93; that for `O=C(OCc1ccc(Cl)cc1)N1CC2(CN(Cc3ccc(F)cc3)C2)C1` [Cpd B130] was 7.88. `CCc1cc(CC(=O)N2CC3(CN(Cc4ccc(F)cc4)C3)C2)ccn1` [Cpd B415] had a pEC50 of 5.62. This pEC50 lies 2.26 log units lower than the previous one. The value for `COc1cccc(OC)c1CNC1CC2(C1)CC(Nc1nc(Cc3ccc(Cl)cc3)ns1)C2` (stereo not drawn) [Cpd B311, N-(3-(4-chlorobenzyl)-1,2,4-thiadiazol-5-yl)-N′-(2,6-dimethoxybenzyl) spiro[3.3]heptane-2,6-diamine] was 8.40; that for `Cn1cnc(CN2CC3(C2)CN(C(=O)CC2CCC(F)(F)CC2)C3)c1Cl` [Cpd B458] was 7.18.

Compound `O=C(Cc1ccc(F)cc1)N1CC2(CN(Cc3cscn3)C2)C1` [Cpd B022, 2-(4-Fluoro-phenyl)-1-(6-thiazol-4-ylmethyl-2,6-diaza-spiro[3.3]hept-2-yl)-ethanone] showed a pEC50 of 6.83. For `O=C(OC1CCC(F)(F)CC1)N1CC2(CN(Cc3ccc(F)cn3)C2)C1` [Cpd B153], the pEC50 was 7.43. Compared with the last compound, the pEC50 is 0.60 log units higher. The same measure for `O=C(CC1CCC(F)(F)CC1)N1CC2(CN(Cc3ccc(F)cc3C(F)(F)F)C2)C1` [Cpd B104, 2-(4,4-difluorocyclohexyl)-1-(6-(4-fluoro-2-(trifluoromethyl)benzyl)-2,6-diazaspiro[3.3]heptan-2-yl)ethan-1-one]: 8.79; for `COc1ccc(CCCN2CC3(C2)CN(C(=O)Cc2ccc(F)cc2)C3)cc1` [Cpd B060, 2-(4-Fluoro-phenyl)-1-{6-[3-(4-methoxy-phenyl)-propyl]-2,6-diaza-spiro[3.3]hept-2-yl}-ethanone]: 9.09; for `O=C(Cc1ccc(Cl)cc1)N1CC2(CN(Cc3ccccn3)C2)C1` [Cpd B032, 2-(4-chlorophenyl)-1-(6-(pyridin-2-ylmethyl)-2,6-diazaspiro[3.3]heptan-2-yl)ethanone]: 7.31. The value for `O=C(OCC1CCC(F)(F)CC1)N1CC2(CN(Cc3ncccc3C(F)(F)F)C2)C1` [Cpd B163] was 8.44; that for `O=C(OCC1CCC(F)(F)CC1)N1CC2(CN(Cc3ccc(F)cc3C(F)(F)F)C2)C1` [Cpd B166] was 9.13; that for `CN(Cc1ccccc1)C1CC2(CC(NC(=O)Cc3ccc(Cl)cc3)C2)C1` (stereo not drawn) [Cpd B068, N-(6-(benzyl(methyl)amino)spiro[3.3]heptan-2-yl)-2-(4-chlorophenyl)acetamide] was 7.87. The value for `Cc1nc(CN2CC3(C2)CN(C(=O)OC2CCC(F)(F)CC2)C3)co1` [Cpd B143] was 6.96; that for `O=C(Cc1ccc(F)cc1)N1CC2(CN(Cc3ccccc3)C2)C1` [Cpd B002, 1-(6-benzyl-2,6-diazaspiro[3.3]heptan-2-yl)-2-(4-fluorophenyl)ethanone] was 8.02. The compound `COc1cccc(CN2CC3(C2)CN(C(=O)CC2CCCC2)C3)c1` [Cpd B455] showed a pEC50 of 7.13. This pEC50 lies 0.89 log units lower than the previous one. The value for `Cn1ncc(Cl)c1CN1CC2(C1)CN(C(=O)CC1CCC(F)(F)CC1)C2` [Cpd B438] was 6.50.

`COC(=O)c1ccc(CN2CC3(C2)CN(C(=O)Cc2ccc(F)cc2)C3)cc1` [Cpd B014, 4-{6-[2-(4-Fluoro-phenyl)-acetyl]-2,6-diaza-spiro[3.3]hept-2-ylmethyl}-benzoic acid methyl ester] had a negative logarithm of the EC50 (pEC50) of 9.04. This pEC50 lies 2.54 log units higher than the previous one. The same measure for `Cc1nc(CN2CC3(C2)CN(C(=O)CC2CCC(F)(F)CC2)C3)cs1` [Cpd B102]: 7.58; for `Cc1nc(CN2CC3(C2)CN(C(=O)NCc2ccc(F)cc2)C3)cs1` [Cpd B418]: 5.88. The same measure for `COc1cccc(CN2CC3(C2)CN(C(=O)COC2CCCCC2)C3)c1` [Cpd B070]: 7.27; for `Cc1cccc(CCN2CC3(C2)CN(C(=O)Cc2ccc(Cl)cc2)C3)n1` [Cpd B051, 2-(4-chlorophenyl)-1-(6-(2-(6-methylpyridin-2-yl)ethyl)-2,6-diazaspiro[3.3]heptan-2-yl)ethanone]: 7.51; for `Cn1ccnc1CN1CC2(C1)CN(C(=O)Cc1ccc(F)cc1)C2` [Cpd B020, 2-(4-Fluoro-phenyl)-1-[6-(1-methyl-1H-imidazol-2-ylmethyl)-2,6-diaza-spiro[3.3]hept-2-yl]-ethanone]: 6.37.

On to `CC(=O)Nc1ccc(CNC2CC3(C2)CC(Nc2nc(Cc4ccc(Cl)cc4)ns2)C3)cc1` (stereo not drawn) [Cpd B326, N-(4-((6-(3-(4-chlorobenzyl)-1,2,4-thiadiazol-5-ylamino)spiro[3.3]heptan-2-ylamino)methyl)phenyl) acetamide], for which the pEC50 is 6.84.

For `Cc1cccc(CCN2CC3(C2)CN(C(=O)Cc2ccc(Cl)cc2)C3)c1` [Cpd B049, 2-(4-chlorophenyl)-1-(6-(3-methylphenethyl)-2,6-diazaspiro[3.3]heptan-2-yl)ethanone], the pEC50 was 7.91.

(Values after patent US20250388592A1 (REMYND N.V., priority 2022, published 2025).)
